# Data: PubChem BioAssay (NCI)
#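 Step 1: Grow cells in 96-well plates. Step 2: Expose to compound for 48 hours at 5 concentrations. Step 3: Interpolate endpoints linearly; if unreached, use highest concentration. The concentration for 50% growth inhibition is given as GI50. Definition used: TGI = concentration required for complete inhibition of growth.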
# Experiments:
# Assay in all cases: inhibition of tumour cell growth, NCI panel, 48 h
# [1] = system: SR leukemia
# [2] = system: UO-31 renal
# [3] = system: CAKI-1 renal
# [4] = system: HCT-15 colon
# [5] = system: SK-MEL-2 melanoma
# [6] = system: SF-295 CNS
# [7] = system: MOLT-4 leukemia
# [8] = system: RPMI-8226 leukemia
# [9] = system: OVCAR-5 ovarian
# [10] = system: ACHN renal
smiles,measurement,setting,value
C#CC1(O)CCC2C3CCc4cc(Oc5nc(F)nc(-c6c7ccccc7c7n6CCS7)n5)ccc4C3CC[C@@]21C (some centres undefined),TGI,[1],92.3 µM
same,TGI,[2],78.3 µM
same,TGI,[3],73 µM
same,TGI,[4],54.3 µM
same,TGI,[5],23.9 µM
same,TGI,[6],30.1 µM
same,TGI,[7],> 100 µM
same,TGI,[8],57.5 µM
same,TGI,[9],> 100 µM
same,TGI,[10],> 100 µM
CCCn1c(SCCSc2c3ccccc3c(-c3nc(F)nc(F)n3)n2CCC)c2ccccc2c1-c1nc(F)nc(F)n1,TGI,[1],60.4 µM
same,TGI,[2],> 100 µM
same,TGI,[3],> 100 µM
same,TGI,[4],> 100 µM
same,TGI,[5],> 100 µM
same,TGI,[6],> 100 µM
same,TGI,[7],> 100 µM
same,TGI,[8],79.7 µM
same,TGI,[9],> 100 µM
same,TGI,[10],> 100 µM
O=C(O)C(Cc1cnc[nH]1)N1C(=O)c2ccccc2C1=O (centres undefined),TGI,[1],> 100 µM
same,TGI,[2],> 100 µM
same,TGI,[3],> 100 µM
same,TGI,[4],> 100 µM
same,TGI,[5],> 100 µM
same,TGI,[6],98.5 µM
same,TGI,[7],> 100 µM
same,TGI,[8],> 100 µM
same,TGI,[9],> 100 µM
same,TGI,[10],> 100 µM
CC(C)N(C(=O)c1cccc(C(=O)N(C(C)C)C(C)C)c1)C(C)C,TGI,[1],> 100 µM
same,TGI,[2],> 100 µM
same,TGI,[3],> 100 µM
same,TGI,[4],> 100 µM
same,TGI,[5],> 100 µM
same,TGI,[6],> 100 µM
same,TGI,[7],> 100 µM
same,TGI,[8],67.1 µM
same,TGI,[9],> 100 µM
same,TGI,[10],> 100 µM
[N-]=[N+]=NC(c1cn(C2CC(O)C(CO)O2)c(=O)[nH]c1=O)C(Cl)Br (centres undefined),TGI,[1],> 100 µM
same,TGI,[2],> 100 µM
same,TGI,[3],> 100 µM
same,TGI,[4],> 100 µM
same,TGI,[5],> 100 µM
same,TGI,[6],> 100 µM
same,TGI,[7],> 100 µM
same,TGI,[8],> 100 µM
same,TGI,[10],> 100 µM
COC(=O)c1c2c(c(C)[n+]([O-])c1C)C(=O)C=C(NCc1ccccc1)C2=O,GI50,[1],0.895 µM
same,TGI,[1],5.66 µM
same,GI50,[2],1.35 µM
same,TGI,[2],2.65 µM
same,GI50,[3],1.09 µM
same,TGI,[3],3.1 µM
same,GI50,[4],0.426 µM
same,TGI,[4],1.8 µM
same,GI50,[5],1.25 µM
same,TGI,[5],2.82 µM
same,GI50,[6],1.11 µM
same,TGI,[6],2.35 µM
same,GI50,[7],0.619 µM
same,TGI,[7],2.83 µM
same,GI50,[8],1.36 µM
same,TGI,[8],4.28 µM
same,GI50,[9],1.35 µM
same,TGI,[9],2.7 µM
O=C1CCc2c(sc3[nH]c(=S)n(-c4cc(C(F)(F)F)cc(C(F)(F)F)c4)c(=O)c23)C1,GI50,[1],0.516 µM
same,TGI,[1],> 100 µM
same,GI50,[2],0.292 µM
same,TGI,[2],1.11 µM
same,GI50,[3],0.377 µM
same,TGI,[3],4.54 µM
same,GI50,[4],0.338 µM
same,TGI,[4],1.36 µM
same,GI50,[5],0.721 µM
same,TGI,[5],3.74 µM
same,GI50,[6],0.318 µM
same,TGI,[6],1.1 µM
same,GI50,[7],0.636 µM
same,TGI,[7],9.15 µM
same,GI50,[8],0.411 µM
same,TGI,[8],3.03 µM
same,GI50,[9],0.438 µM
same,TGI,[9],2.19 µM
same,GI50,[10],0.344 µM
same,TGI,[10],1.31 µM
COC(C)(C)[C@@H](O)[C@H](O)C[C@H](C)C1=C2CC[C@@H]3[C@@]4(C)CC[C@@H](OC(C)=O)C(C)(C)[C@@H]4C[C@@H](OC4OC(COC(C)=O)C(O)C(O)C4O)[C@@]3(C)[C@]2(C)CC1 (some centres undefined),GI50,[1],3.06 µM
same,TGI,[1],14.3 µM
same,GI50,[2],13.6 µM
same,TGI,[2],26.9 µM
same,GI50,[3],4.1 µM
same,TGI,[3],14.8 µM
same,GI50,[4],11 µM
same,TGI,[4],23.8 µM
same,GI50,[5],13.2 µM
same,TGI,[5],26 µM
same,GI50,[6],11.6 µM
same,TGI,[6],24.1 µM
same,GI50,[7],5.07 µM
same,TGI,[7],23.9 µM
same,GI50,[8],4.15 µM
same,TGI,[8],22.1 µM
same,GI50,[9],14.9 µM
same,TGI,[9],28.1 µM
same,GI50,[10],10.4 µM
same,TGI,[10],22.2 µM
O=C(NCCN1CCOCC1)OCc1nc2nc(Cl)nc(N3CCOCC3)c2[nH]1,GI50,[1],0.728 µM
same,TGI,[1],> 100 µM
same,GI50,[2],4.25 µM
same,TGI,[2],> 100 µM
same,GI50,[3],3.07 µM
same,TGI,[3],> 100 µM
same,GI50,[4],3.09 µM
same,TGI,[4],> 100 µM
same,GI50,[5],6.66 µM
same,TGI,[5],> 100 µM
same,GI50,[6],5.77 µM
same,TGI,[6],> 100 µM
same,GI50,[7],3.32 µM
same,TGI,[7],> 100 µM
same,GI50,[8],0.701 µM
same,TGI,[8],> 100 µM
same,GI50,[9],4.42 µM
same,TGI,[9],> 100 µM
same,GI50,[10],0.901 µM
same,TGI,[10],> 100 µM
COc1ccccc1/C=C1\COc2ccc(-c3ccccc3)cc2C1=O,GI50,[1],1.31 µM
same,TGI,[1],> 100 µM
same,GI50,[2],8.93 µM
same,TGI,[2],37.3 µM
same,GI50,[3],4.74 µM
same,TGI,[3],> 100 µM
same,GI50,[4],2.64 µM
same,TGI,[4],13.1 µM
same,GI50,[5],3.82 µM
same,TGI,[5],22.1 µM
same,GI50,[6],4 µM
same,TGI,[6],85.4 µM
same,GI50,[7],2.16 µM
same,TGI,[7],> 100 µM
same,GI50,[8],2.83 µM
same,TGI,[8],> 100 µM
same,GI50,[9],5.29 µM
same,TGI,[9],21.1 µM
same,GI50,[10],3.86 µM
same,TGI,[10],26 µM
C=C1CC(CC)(CCN2C(=O)c3ccccc3C2=O)OC1=O (centres undefined),TGI,[1],> 100 µM
same,TGI,[2],36.2 µM
same,TGI,[3],7.59 µM
same,TGI,[4],31.6 µM
same,TGI,[5],29.2 µM
same,TGI,[6],> 100 µM
same,TGI,[7],> 100 µM
same,TGI,[8],> 100 µM
same,TGI,[10],28.6 µM
Cc1c(C(=O)C/C(=N/NC(=O)c2ccccc2)C(=O)Nc2ccc(Cl)cc2)[n+](=O)c2ccccc2n1[O-],TGI,[1],> 100 µM
same,TGI,[3],> 100 µM
same,TGI,[4],> 100 µM
same,TGI,[5],> 100 µM
same,TGI,[6],> 100 µM
same,TGI,[7],> 100 µM
same,TGI,[8],> 100 µM
same,TGI,[9],> 100 µM
same,TGI,[10],> 100 µM
CC(C)C1CO[C@]2(C)CCC(=O)N12 (some centres undefined),TGI,[1],> 100 µM
same,TGI,[2],> 100 µM
same,TGI,[3],> 100 µM
same,TGI,[4],> 100 µM
same,TGI,[5],> 100 µM
same,TGI,[6],> 100 µM
same,TGI,[7],> 100 µM
same,TGI,[8],> 100 µM
same,TGI,[10],> 100 µM
